Measurements as given in patent US20240238445A1, “INHIBITORS AND USES THEREOF” (NEURACLE SCIENCE CO., LTD., priority 2021, published 2024).
Square brackets hold non-standard residues; d marks the D form. Ends that are not written are not given here.

System: hippocampal neurons co-treated with toxic Aβ oligomer
Assay: Amyloid beta-induced synapse loss in mouse primary hippocampal neurons
Format: cell-based
Conditions: 6.6 nM
Protocol: Alzheimer's disease (AD) is tightly associated with the dysmetabolism of amyloid-β (Aβ). To begin assessing whether the polypeptides provided herein (i.e., comprising the FAM19A5 binding domain of LRRC4 protein family members) could have any therapeutic effects on AD, the effect of various FB-21 peptide fragments described herein on the deformation of synapse induced by toxic Aβ oligomer and following structural recovery was assessed. Specifically, the following FB-21 peptide fragments were tested: FB-21, FB-JM-31 and FB-BBB-39 (see Example 10).
Aβ42 (#20276) peptide was purchased from AnaSpec (Fremont, USA). […]
Hippocampal neurons were treated with 6.6 nM FB-21, 6.6 nM of FB-13-JM and 6.6 nM of FB-13-BBBX2 at 14, 17 and 20 DIV to determine the level of synaptogenesis at 21 DIV by immunostaining SYP, a presynapse marker protein and PSD95, a postsynapse marker protein. To quantify fluorescence intensity for SYN and PSD95 and number of colocalized voxels between SYN and PSD95 signals, z-stack confocal images of 3 μm in depth were converted to 3D images using IMARIS software (IMARIS9.0, Bitplane AG, Zurich, Switzerland). The “Surface tool” of the IMARIS software was used to exclude all the signals detected in neuronal cell bodies, and number of colocalized voxels between SYN and PSD95 signals in neurites were calculated using the “Coloc tool”. […]

**Q.** “nYTYFTTVTVETLETQPGEEALDEVMKTTKa ([dN]YTYFTTVTVETLETQPGEEALDEVMKTTK[dA]; also: terminal modifications n and a on first and last residues) [FB peptide with JM sequence]” was tested. Which “colocalized voxels for PSD95 and synaptophysin” value did it give?
**A.** Its value is “significant increase in colocalized voxels”.
